PMC3093256, “Synthesis of 1-Substituted Carbazolyl-1,2,3,4-tetrahydro- and Carbazolyl-3,4-dihydro-β-carboline Analogs as Potential Antitumor Agents” (Marine Drugs, 2011)
≈ marks a conversion by molar mass, not a printed value.

Legend:
[1] = system: NCI-H661 (human lung large cell carcinoma); test: Cytotoxicity assay, NCI-H661 cells; assay type: cell-based; settings: 72 h, 3 days incubation, by interpolation
Procedure: (§1) The cytotoxic activities of compounds against KB (human mouth epidermoid carcinoma), DLD (human colon adenocarcinoma), NCI-H661 (human lung large cell carcinoma), Hepa (human hepatoma), and HepG2/A2 (human hepatoblastoma) cells were assayed by the […] assay as previously described. The cells for assay were cultured in RPMI-1640 medium supplemented with […] in an incubator at 37 °C. The cytotoxicity assay depends on the binding of methylene blue to fixed monolayers of cells at pH 8.5, washing the monolayer, and releasing the dye by lowering the pH value. Samples and control standard drugs were prepared at a concentration of 1, 10, 40, and 100 μg/mL. After seeding 2880 cells/well in a 96-well microplate for 3 h, 20 μL of sample or standard agent was placed in each well and incubated at 37 °C for 3 days. After removing the medium from the microplates, the cells were fixed with 10% formaldehyde in 0.9% saline for 30 min, then dyed with 1% (w/v) methylene blue in 0.01 M borate-buffer (100 μL/well) for 30 min. The 96-well plate was dipped into a 0.01 M borate-buffer solution four times in order to remove the dye. Then, 100 μL/well of EtOH-0.1 M HCl (1:1) was added as a dye eluting solvent, and the absorbance was measured on a microtiter plate reader (Dynatech, MR 7000) at a wavelength of 650 nm. […] Doxorubicin was used as a standard compound.

[2] = target: T1, human DNA topoisomerase II (Homo sapiens, UniProt P11388); test: Relaxation assay of topoisomerase II (supercoiled pBR322); assay type: biochemical; settings: for IC50: five concentrations 5, 10, 25, 50 and 100 μg/mL, read-out: Inhibition of DNA topoisomerase II IC50 (converted); for inhibition of DNA topoisomerase II (in words): compared with etoposide; for fold more potent against topoisomerase II compared to etoposide: relative to etoposide
T1 construct: purchased TopoGen
Procedure: (§2) Topoisomerases I and II (topo I and II) assays were measured by assessing relaxation of supercoiled pBR322 plasmid DNA according to [24]. […] In summary, topo I (TopoGen) was mixed with the test sample and 10° volume of assay buffer (100 mM Tris-HCl, 10 mM EDTA, 1.5 M NACl, 1.0% BSA, […], and 50% glycerol), and then supercoiled DNA (pBR322) was added. In topo II assay, the mixture contained test sample and buffer including 50 mM Tris-HCl, 120 mM KCl, 10 mM MgCl2, 0.5 mM ATP, 0.5 mM dithiothreitol, 2 μg BSA, pBR322 plasmid DNA (0.25 μg), and 3U of topo II (TopoGen) in final volume of 20 μL. After incubation of topo I or topo II mixture for 30 min at 37 °C, 2 λ 10% SDS and 2.5 λ proteinase K were added for 1 h. The reaction mixtures were electrophoresed on a 2% agarose gel (50 V, 20 min; 100 V, 30 min; 110 V, 30 min) and stained with ethidium bromide. Finally, by a densitometer of ImageMaster® (Fujifilm thermal imaging system, FTI-500), the gels were directly scanned and the area representing supercoiled DNA was calculated.

[3] = system: KB (human mouth epidermoid carcinoma); test: Cytotoxicity assay, KB cells; assay type: cell-based; settings: 72 h, 3 days incubation, by interpolation
Procedure: as §1

[4] = system: DLD (human colon adenocarcinoma); test: Cytotoxicity assay, DLD cells; assay type: cell-based; settings: for IC50: Homo sapiens, 72 h, 3 days incubation, by interpolation
Procedure: as §1

[5] = target: T2, human DNA topoisomerase I (Homo sapiens, UniProt P11387); test: Relaxation assay of topoisomerase I (supercoiled pBR322); assay type: biochemical; settings: five concentrations 5, 10, 25, 50 and 100 μg/mL; read-out: Inhibition of DNA topoisomerase I IC50 (converted)
T2 construct: purchased TopoGen
T2 sequence (P11387 1-765): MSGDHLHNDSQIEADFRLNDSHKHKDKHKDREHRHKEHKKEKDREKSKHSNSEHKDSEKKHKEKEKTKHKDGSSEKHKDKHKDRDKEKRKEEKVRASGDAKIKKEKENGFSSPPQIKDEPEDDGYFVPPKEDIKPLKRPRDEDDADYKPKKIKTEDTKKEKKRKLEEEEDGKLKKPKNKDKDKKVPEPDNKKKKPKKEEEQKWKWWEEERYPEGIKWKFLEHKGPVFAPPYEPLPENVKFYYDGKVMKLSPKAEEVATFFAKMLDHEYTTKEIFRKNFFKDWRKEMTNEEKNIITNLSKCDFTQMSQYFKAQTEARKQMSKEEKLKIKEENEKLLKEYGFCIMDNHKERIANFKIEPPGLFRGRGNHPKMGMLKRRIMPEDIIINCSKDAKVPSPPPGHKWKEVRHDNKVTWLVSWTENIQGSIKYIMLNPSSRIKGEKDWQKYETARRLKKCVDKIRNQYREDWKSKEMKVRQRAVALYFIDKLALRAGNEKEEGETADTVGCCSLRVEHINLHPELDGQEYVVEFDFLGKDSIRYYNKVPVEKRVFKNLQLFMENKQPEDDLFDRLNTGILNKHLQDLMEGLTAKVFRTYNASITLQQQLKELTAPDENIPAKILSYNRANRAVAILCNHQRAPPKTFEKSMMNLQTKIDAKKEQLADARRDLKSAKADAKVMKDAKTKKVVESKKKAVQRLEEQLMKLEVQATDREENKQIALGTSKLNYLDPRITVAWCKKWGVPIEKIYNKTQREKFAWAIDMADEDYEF
Procedure: as §2

[6] = system: HepG2/A2 (human hepatoma); test: Cytotoxicity assay, HepG2/A2 cells; assay type: cell-based; settings: for IC50: Homo sapiens, 72 h, HepG2/A2 cells, 3 days incubation, by interpolation
Procedure: as §1

[7] = system: Hepa (human hepatoma); test: Cytotoxicity assay, Hepa cells; assay type: cell-based; settings: 72 h, 3 days incubation, by interpolation
Procedure: as §1

T1 sequence (P11388 whole entry): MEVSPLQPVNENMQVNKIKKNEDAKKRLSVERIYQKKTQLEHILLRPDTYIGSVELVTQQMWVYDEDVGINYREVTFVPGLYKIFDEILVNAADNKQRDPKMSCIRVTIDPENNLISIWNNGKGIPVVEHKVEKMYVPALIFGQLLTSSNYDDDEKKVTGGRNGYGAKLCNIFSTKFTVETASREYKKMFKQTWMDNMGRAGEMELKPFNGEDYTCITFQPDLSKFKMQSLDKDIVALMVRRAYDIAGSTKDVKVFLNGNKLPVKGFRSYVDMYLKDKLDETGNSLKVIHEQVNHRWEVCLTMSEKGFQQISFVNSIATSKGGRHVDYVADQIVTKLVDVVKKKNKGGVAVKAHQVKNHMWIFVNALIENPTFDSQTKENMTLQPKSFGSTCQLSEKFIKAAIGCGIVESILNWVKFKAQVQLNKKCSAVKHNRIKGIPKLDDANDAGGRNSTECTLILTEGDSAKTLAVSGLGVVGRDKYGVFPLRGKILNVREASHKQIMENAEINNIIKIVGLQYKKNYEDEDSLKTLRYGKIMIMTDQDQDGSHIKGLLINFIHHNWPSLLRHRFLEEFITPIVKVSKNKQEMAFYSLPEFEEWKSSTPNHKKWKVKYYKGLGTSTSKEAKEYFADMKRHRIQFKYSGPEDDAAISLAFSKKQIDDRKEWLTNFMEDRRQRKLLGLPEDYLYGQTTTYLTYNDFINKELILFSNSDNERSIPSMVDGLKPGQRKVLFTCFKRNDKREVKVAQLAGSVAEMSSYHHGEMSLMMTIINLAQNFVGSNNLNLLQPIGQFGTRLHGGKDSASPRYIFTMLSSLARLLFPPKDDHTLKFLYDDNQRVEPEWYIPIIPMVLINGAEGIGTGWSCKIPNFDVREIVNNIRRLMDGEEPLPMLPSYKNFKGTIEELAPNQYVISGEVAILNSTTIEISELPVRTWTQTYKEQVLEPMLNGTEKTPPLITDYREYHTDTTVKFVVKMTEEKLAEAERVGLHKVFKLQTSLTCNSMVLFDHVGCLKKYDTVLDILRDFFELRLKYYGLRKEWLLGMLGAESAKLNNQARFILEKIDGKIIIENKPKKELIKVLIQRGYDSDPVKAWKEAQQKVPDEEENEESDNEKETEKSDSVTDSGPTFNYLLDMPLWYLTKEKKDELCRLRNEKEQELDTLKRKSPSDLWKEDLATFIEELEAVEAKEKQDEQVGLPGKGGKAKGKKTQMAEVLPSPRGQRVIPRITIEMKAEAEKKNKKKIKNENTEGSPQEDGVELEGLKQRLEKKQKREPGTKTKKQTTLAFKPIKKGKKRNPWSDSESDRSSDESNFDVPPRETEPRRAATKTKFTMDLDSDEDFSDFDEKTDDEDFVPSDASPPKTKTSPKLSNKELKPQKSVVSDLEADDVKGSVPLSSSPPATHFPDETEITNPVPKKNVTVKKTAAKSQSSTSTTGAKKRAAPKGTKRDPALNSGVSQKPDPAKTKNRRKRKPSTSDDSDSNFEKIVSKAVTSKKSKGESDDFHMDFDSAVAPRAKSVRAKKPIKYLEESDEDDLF

Row | SMILES | IC50 [1] [µg/mL] | IC50 [2] [µM] | IC50 [3] [µg/mL] | IC50 [4] [µg/mL] | IC50 [5] [µM] | melting point [°C] | IC50 [6] [µg/mL] | inhibition of DNA topoisomerase II (in words) [2] | fold more potent against topoisomerase II compared to etoposide [2] | IC50 [7] [µg/mL] | cytotoxicity against HepG2/A2 (in words) ([6]; HepG2/A2 tumor cells) | activity in DLD assay (in words) [4]
1 | CCn1c2ccccc2c2cc(C3NCCc4c3[nH]c3ccccc43)ccc21 (stereo not drawn) [Compound 1, 1-(9′-Ethyl-3′-carbazolyl)-1,2,3,4-tetrahydro-β-carboline] | 1.82 (≈ 4.98 µM) | 26 | 3.47 (≈ 9.49 µM) | 1.69 (≈ 4.62 µM) | > 274 | 240 to 242 | – | – | – | – | – | –
2 | CCn1c2ccccc2c2cc(C3=NCCc4c3[nH]c3ccccc43)ccc21 [Compound 2, 1-(9′-Ethyl-3′-carbazolyl)-3,4-dihydro-β-carboline] | 0.84 (≈ 2.31 µM) | 23.4 | 0.71 (≈ 1.95 µM) | 1.09 (≈ 3 µM) | > 275 | 175 to 177 | 0.6 (≈ 1.65 µM) | – | – | – | – | –
3 | CCCn1c2ccccc2c2cc(C3NCCc4c3[nH]c3ccccc43)ccc21 (stereo not drawn) [Compound 3, 1-(9′-Propyl-3′-carbazolyl)-1,2,3,4-tetrahydro-β-carboline] | 2.14 (≈ 5.64 µM) | 4.22 | 1.84 (≈ 4.85 µM) | 1.58 (≈ 4.16 µM) | 124 | 110 to 112 | 6.1 (≈ 16.1 µM) | most potent | 10- to 15 fold | – | – | –
4 | CCCn1c2ccccc2c2cc(C3=NCCc4c3[nH]c3ccccc43)ccc21 [Compound 4, 1-(9′-Propyl-3′-carbazolyl)-3,4-dihydro-β-carboline] | 5.02 (≈ 13.3 µM) | 5.56 | 2.72 (≈ 7.21 µM) | 2.16 (≈ 5.72 µM) | > 265 | 126 to 128 | 5.1 (≈ 13.5 µM) | most potent | 10- to 15 fold | – | – | –
5 | CCC(C)n1c2ccccc2c2cc(C3NCCc4c3[nH]c3ccccc43)ccc21 (stereo not drawn) [Compound 5, 1-(9′-[1″-Methyl]propyl-3′-carbazolyl)-1,2,3,4-tetrahydro-β-carboline] | – | 25.4 | 3 (≈ 7.62 µM) | – | > 254 | 127 to 130 | – | – | – | 2.25 (≈ 5.72 µM) | – | –
6 | CCC(C)n1c2ccccc2c2cc(C3=NCCc4c3[nH]c3ccccc43)ccc21 (stereo not drawn) [Compound 6, 1-(9′-[1″-Methyl]propyl-3′-carbazolyl)-3,4-dihydro-β-carboline] | – | 66.4 | 0.48 (≈ 1.23 µM) | – | > 255 | 151 to 154 | – | – | – | 2.67 (≈ 6.82 µM) | – | –
7 | CCCCCn1c2ccccc2c2cc(C3NCCc4c3[nH]c3ccccc43)ccc21 (stereo not drawn) [Compound 7, 1-(9′-Pentyl-3′-carbazolyl)-1,2,3,4-tetrahydro-β-carboline] | 0.22 (≈ 0.54 µM) | 6.62 | 3.45 (≈ 8.46 µM) | 3.75 (≈ 9.2 µM) | 218 | 129 to 130 | 20.5 (≈ 50.3 µM) | most potent | – | – | – | –
8 | CCCCCn1c2ccccc2c2cc(C3=NCCc4c3[nH]c3ccccc43)ccc21 [Compound 8, 1-(9′-Pentyl-3′-carbazolyl)-3,4-dihydro-β-carboline] | 3.39 (≈ 8.36 µM) | 54.2 | > 20 | 1.29 (≈ 3.18 µM) | 143 | 97 to 98 | 5.4 (≈ 13.3 µM) | – | – | – | active | –
9 | CC(C)CCn1c2ccccc2c2cc(C3NCCc4c3[nH]c3ccccc43)ccc21 (stereo not drawn) [Compound 9, 1-(9′-[3″-Methylbutyl]-3′-carbazolyl)-1,2,3,4-tetrahydro-β-carboline] | – | 6.87 | 2.96 (≈ 7.26 µM) | – | 236 | 99 to 101 | – | most potent | 10- to 15 fold | 1.12 (≈ 2.75 µM) | – | –
10 | CC(C)CCn1c2ccccc2c2cc(C3=NCCc4c3[nH]c3ccccc43)ccc21 [Compound 10, 1-(9′-[3″-Methylbutyl]-3′-carbazolyl)-3,4-dihydro-β-carboline] | – | 6.66 | 3.13 (≈ 7.72 µM) | – | 165 | 135 to 137 | – | most potent | 10- to 15 fold | 4.4 (≈ 10.8 µM) | – | –
11 | CCCCCCCCn1c2ccccc2c2cc(C3NCCc4c3[nH]c3ccccc43)ccc21 (stereo not drawn) [Compound 11, 1-(9′-Octyl-3′-carbazolyl)-1,2,3,4-tetrahydro-β-carboline] | > 20 | 66.7 | > 20 | 1.57 (≈ 3.49 µM) | > 222 | 87 to 89 | 20.7 (≈ 46 µM) | – | – | – | – | active
12 | CCCCCCCCn1c2ccccc2c2cc(C3=NCCc4c3[nH]c3ccccc43)ccc21 [Compound 12, 1-(9′-Octyl-3′-carbazolyl)-3,4-dihydro-β-carboline] | 5.28 (≈ 11.8 µM) | 64.8 | 9.13 (≈ 20.4 µM) | 2.55 (≈ 5.7 µM) | > 223 | 91 to 92 | 30.1 (≈ 67.2 µM) | – | – | – | – | –
13 | CCCCCCCCCCn1c2ccccc2c2cc(C3NCCc4c3[nH]c3ccccc43)ccc21 (stereo not drawn) [Compound 13, 1-(9′-Decyl-3′-carbazolyl)-1,2,3,4-tetrahydro-β-carboline] | 13.9 (≈ 29.1 µM) | 58.6 | 6.36 (≈ 13.3 µM) | 10.4 (≈ 21.8 µM) | > 209 | 102 to 104 | > 60 | – | – | – | – | –
14 | CCCCCCCCCCn1c2ccccc2c2cc(C3=NCCc4c3[nH]c3ccccc43)ccc21 [Compound 14, 1-(9′-Decyl-3′-carbazolyl)-3,4-dihydro-β-carboline] | > 20 | 39.9 | > 20 | > 20 | > 210 | 78 to 80 | > 60 | – | – | > 20 | – | –
15 | CCCCCCCCCCCCCCCCn1c2ccccc2c2cc(C3NCCc4c3[nH]c3ccccc43)ccc21 (stereo not drawn) [Compound 15, 1-(9′-Hexadecyl-3′-carbazolyl)-1,2,3,4-tetrahydro-β-carboline] | > 20 | > 178 | > 20 | > 20 | > 178 | 111 to 113 | > 60 | – | – | > 20 | – | –
16 | CCCCCCCCCCCCCCCCCCCCn1c2ccccc2c2cc(C3NCCc4c3[nH]c3ccccc43)ccc21 (stereo not drawn) [Compound 17, 1-(9′-Eicosyl-3′-carbazolyl)-1,2,3,4-tetrahydro-β-carboline] | > 20 | > 162 | > 20 | > 20 | > 162 | – | > 60 | – | – | > 20 | – | –
